From ChEMBL document CHEMBL1131759, “A mutational study of a Diels-Alderase catalytic antibody” (Bioorg Med Chem Lett, 1999)

Assays:
Type in all cases: ADME
[1] = Kinetic constant for the germline antibody
[2] = Kinetic constant for the SerL91Val (germline)
[3] = Kinetic constant for the 39-A11 antibody
[4] = Kinetic constant for the Val91Tyr (39-A11)

Row | SMILES | Km [1] | Km [2] | Km [3] | Km [4]
1 | CC(=O)Nc1ccc(N2C(=O)C=CC2=O)cc1 | 450 µM | 740 µM | 740 µM | 420 µM
2 | C=C/C=C/NC(=O)OCC(=O)O | 1400 µM | 1200 µM | 1200 µM | 2100 µM
